Source: US9138431B2, “Methods of treatment of histamine H-4 receptor-related pruritus” (BRIDGE PHARMA, INC., priority 2013, dated 2015)
Like-named read-outs stand apart in the source and are kept apart here.

Legend:
[1] = system: pruritus induced by interleukin-31 (IL-31); settings: recent study; cited from earlier work
[2] = system: histamine-induced pruritus; experiment: Antipruritic activity, histamine-induced pruritus in mice; assay type: in vivo, CD-1 mice; settings: for Inhibition of histamine-induced pruritus (bouts of scratches): oral dosing 60 min before intradermal histamine 300 nmol, references 20 mg/kg, norketotifen escalating doses
Description: Antipruritic effects were tested in vivo in CD-1 mice, females, 10-12 weeks, according to methods known in the art. The hair was clipped over the rostral part of the back at the interscapular level of the mice one day before the dosing. Before the testing, the mice were placed in individual clear plastic cages for at least one hour for acclimation. After fasting for 1.5 hours, the animals were dosed orally with the test article, dissolved in a vehicle consisting of 1% methylcellulose/water, 10 mL/kg body weight. Sixty minutes after the oral dosing, an intradermal injection of histamine (300 nmol in 20 μl phosphate buffered saline (PBS), pH 7.4) was administered. Immediately after the histamine injection, the bouts of scratches were counted for 40 min. Scratching induced by the histamine vehicle PBS served as control.
Norketotifen was tested in escalating doses and in a supramaximal dose of 100 mg/kg.

[3] = system: human granulocytes (leukocytes; buffy coat); experiment: Inhibition of histamine release from human granulocytes (A23187-induced); assay type: cell-based; settings: for IC50: Homo sapiens, Leukocyte, 20 min, histamine release induced by A23187 5 μM, 20 min/37° C., read-out: Inhibition of mediator release IC50
Description: Histamine is excessively released from granulocytes in patients with pruritic diseases. The inhibition of histamine release from human granulocytes (leukocytes; buffy coat) by test articles was studied. Leukocytes were obtained from blood from healthy human volunteers and release of histamine was induced by incubation (20 min/37° C.) of the buffy coats with the calcium ionophore A23187 (5 μM) in the presence or absence of a test article. Histamine was analyzed by enzyme-immune assays, using commercially available kits and a microplate reader (MRX, Dynatech). The test articles were evaluated, in duplicate, at five concentrations.

[4] = target: human histamine H-4 Receptor (Homo sapiens (Human), UniProt Q9H3N8); experiment: Binding to histamine H-4 receptors ([3H]-histamine ligand); settings: Cheng-Prusoff, read-out: Human H-4 receptor affinity (Ki)
Sequence of human histamine H-4 Receptor (Q9H3N8 whole entry): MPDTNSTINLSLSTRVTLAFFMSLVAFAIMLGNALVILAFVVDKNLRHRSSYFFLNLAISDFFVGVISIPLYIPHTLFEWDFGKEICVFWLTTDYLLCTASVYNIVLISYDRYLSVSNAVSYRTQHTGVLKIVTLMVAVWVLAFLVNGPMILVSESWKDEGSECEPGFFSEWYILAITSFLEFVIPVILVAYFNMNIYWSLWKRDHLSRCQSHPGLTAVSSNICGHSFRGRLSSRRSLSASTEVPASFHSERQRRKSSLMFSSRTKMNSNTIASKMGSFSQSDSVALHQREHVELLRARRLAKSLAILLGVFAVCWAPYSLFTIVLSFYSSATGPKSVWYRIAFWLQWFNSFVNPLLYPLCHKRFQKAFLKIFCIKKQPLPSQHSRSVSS
Description: Affinities of the test compounds for peripheral human histamine H-4-receptors were assessed using receptor-binding assays. The specific binding of the radioactive ligand to the receptor was defined as the difference between total binding and nonspecific binding, determined in the presence of excess unlabeled ligand. [^3H]-histamine was used as the ligand in this study and the affinity values were determined according to the Cheng-Prusoff equation.

[5] = target: human histamine H-1 Receptor (Homo sapiens (Human), UniProt P35367); experiment: Binding to histamine H-1 receptors; settings: read-out: Human H-1 receptors IC50, heading: Human H-1 receptors IC50
Sequence of human histamine H-1 Receptor (P35367 whole entry): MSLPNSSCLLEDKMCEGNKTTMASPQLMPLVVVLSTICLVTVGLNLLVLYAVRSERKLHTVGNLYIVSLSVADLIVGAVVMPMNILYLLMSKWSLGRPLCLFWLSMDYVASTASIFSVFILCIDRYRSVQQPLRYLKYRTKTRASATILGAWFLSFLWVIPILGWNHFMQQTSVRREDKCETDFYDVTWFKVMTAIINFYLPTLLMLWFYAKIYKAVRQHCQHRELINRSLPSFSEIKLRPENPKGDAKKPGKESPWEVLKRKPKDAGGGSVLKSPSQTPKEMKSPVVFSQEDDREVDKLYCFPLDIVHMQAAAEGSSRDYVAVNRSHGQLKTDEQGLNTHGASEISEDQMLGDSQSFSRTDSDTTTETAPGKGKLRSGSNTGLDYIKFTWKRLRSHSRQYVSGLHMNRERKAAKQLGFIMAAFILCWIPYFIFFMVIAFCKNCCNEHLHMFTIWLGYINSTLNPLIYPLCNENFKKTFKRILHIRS
Description: Affinities of the test compounds for peripheral human histamine H-1-receptors were assessed using receptor-binding assays. The specific binding of the radioactive ligand to the receptor was defined as the difference between total binding and nonspecific binding, determined in the presence of excess unlabeled ligand. Ki-values were determined according to the Cheng-Prusoff equation.

[6] = Dermal drug accumulation after oral administration (plasma and skin PK); assay type: in vivo, beagle dogs; settings: Day 28, oral 8.0 mg/kg/day hydrogen fumarate salt, dogs
Description: Five male beagle dogs, weighing 11.2-13.9 kg (2-4 years old) were used in the study. All animals were administered gelatin capsules containing oral doses of the test article 8.0 mg/kg/day as a hydrogen fumarate salt, equal to 5.6 mg/kg/day of the free base. The animals were dosed once daily for four consecutive weeks followed by daily observations for an additional two-week washout period.
Multiple plasma samples and skin biopsies were taken from each dog on Day 1 and Day 28 of drug administration. The plasma and skin samplings were performed at pre-dose, and at 2, 6, 12 and 24 hours post-dose. Plasma and skin samples were also taken intermittently at predetermined intervals during the 28-days dosing period and up to the last day of the study, which was Day 42. Blood samples were taken from v. Cephalica antebrachii. Skin biopsies were taken from the area between the mid ventral to lateral abdominal areas, using a 6 mm (diameter) skin biopsy device (Acu-Punch®, Acuderm® Inc., Fort Lauderdale, Fla. 33309). Multiple plasma and biopsy samples were obtained from each of 4 or 5 dogs. Subcutaneous fat deposits were carefully trimmed from the skin samples and the skin samples were weighed. All plasma and skin samples were kept
The plasma samples and skin biopsy samples were analyzed using LC/MS/MS methodology. All pharmacokinetic analyses were performed using Pharsight WinNonlin® Professional v5.2.1 software.

[7] = system: histamine-induced pruritus; settings: intradermal histamine, humans and mice; general statement; cited from earlier work
[8] = Sedation in human subjects; assay type: in vivo; settings: doses of 5 mg and 10 mg
[9] = Repeat-dose pharmacological and toxicological studies in dogs (sedation, tolerability); assay type: in vivo; settings: daily doses up to 20 mg/kg/day
Description: Dogs vomit spontaneously for a variety of benign reasons—to expel unwanted content from their stomach, as a result of gastric irritation or in response to colonic irritation. In recent toxicological studies in dogs of various drugs, including isomeric norketotifen, vomiting occurred in both control groups and drug groups and may have been treatment-related, rather than drug-related. The unexpectedly low systemic toxicity of norketotifen and the isomers thereof is believed to be due to low systemic (plasma) concentrations, caused by the fact that norketotifen and the isomers thereof are not circulating in plasma but are accumulating in the skin, which is the largest organ in the body.

Q: Which results are given for `CN1CCN(C(=O)c2cc3cc(Cl)ccc3[nH]2)CC1` [JNJ7777120, reference compound]?
A: Inhibition of IL-31-induced pruritus [1]: failed to inhibit; Inhibition of histamine-induced pruritus (bouts of scratches) [2]: potently inhibited

Q: With `CN1CCC(=C2c3ccccc3CC(=O)c3sccc32)CC1` [Ketotifen, ketotifen, reference compound] as the compound, how does the IC50 [3] read?
A: 91 µM

Q: What does the source list for `O=C(O)/C=C/C(=O)O.O=C1Cc2ccccc2C(=C2CCNCC2)c2ccsc21` [R-NORKETOTIFEN, R-norketotifen]?
A: Ki [4]: 2.3 µM; IC50 [5]: 0.017 µM; MRT Plasma [6]: 14.1 h; t1/2 Plasma [6]: 7.7 h; MRT Skin [6]: 159.1 h; t1/2 Skin [6]: 157.0 h

Q: Which “Inhibition of pruritus following histamine injections by H-1 inhibitors” value [7] does the source give for `CC(C)(C(=O)O)c1ccc(C(O)CCCN2CCC(C(O)(c3ccccc3)c3ccccc3)CC2)cc1` (stereo not drawn) [fexofenadine] here?
A: not inhibited

Q: For `O=C1Cc2ccccc2C(=C2CCNCC2)c2ccsc21` [Norketotifen, norketotifen], which IC50 [3] is on record?
A: 9.2 µM

Q: And the “Potency relative to ketotifen as inhibitor of histamine release” value ([3]; human inflammatory cells)?
A: approximately 10 times

Q: What about the Sedation [8] of the same compound?
A: do not produce sedation

Q: What about the IC50 ([5]; listed as RS-NORKETOTIFEN) of the same compound?
A: 0.011 µM

Q: And the “Sedation or other adverse events, chronic dosing” value [9]?
A: without causing sedation or other adverse events

Q: What about the “Inhibition of histamine-induced pruritus at supramaximal dose” value ([2]; norketotifen 100 mg/kg oral) of the same compound?
A: complete inhibition

Q: What about the “Inhibition of histamine-induced pruritus (bouts of scratches)” value [2] of the same compound?
A: dose-dependently inhibiting

Q: And the “Inhibition of histamine-induced pruritus (bouts of scratches)” value ([2]; listed as norketotifen)?
A: potently inhibited

Q: For `O=C1Cc2ccccc2C(=C2CCNCC2)c2ccsc21` [S-NORKETOTIFEN, S-norketotifen], which Ki [4] is on record?
A: 1.1 µM

Q: And the IC50 [5]?
A: 0.023 µM

Q: What about the “MRT Plasma” value [6] of the same compound?
A: 11.3 h

Q: What about the “t1/2 Plasma” value [6] of the same compound?
A: 10.9 h

Q: And the “MRT Skin” value [6]?
A: 159.0 h

Q: And the “t1/2 Skin” value [6]?
A: 162.7 h
